Test results from article PMC9427252, “Study on the Absorption of Arsenic Species in Realgar Based on the Form and Valence” (Evidence-based Complementary and Alternative Medicine : eCAM, 2022).
Read-outs that look alike come from different tables or passages of the source.

Assays:
Caco-2 cells = settings: A to B, realgar artificial intestinal dissolved solution
[1] = tested on: duodenum, jejunum, and ileum
[2] = rat plasma, oral 0.1 g/kg realgar

Which “MRT(0-∞)” value (rat, in vivo, po, 0.1 g/kg) does the source give for O[As](O)O [AsIII, Arsenite] here?
The value was 9.649 h.

What does the source list for O=[As](O)(O)O [AsV, Arsenate]?
Cumulative transport amount (Caco-2 cells; 30 min): 0.23 ± 0.07 ng; Cumulative transport amount (Caco-2 cells; 60 min): 0.41 ± 0.06 ng; Cumulative transport amount (Caco-2 cells; 90 min): 1.01 ± 0.16 ng; Cumulative transport amount (Caco-2 cells; 120 min): 0.84 ± 0.02 ng; Cumulative transport amount (Caco-2 cells; 180 min): 1.20 ± 0.15 ng; AUC(0-24) [2]: 47.310 ng·h/mL; AUC(0-∞) [2]: 47.687 ng·h/mL; Cmax [2]: 0.021626 ng/mL; MRT(0-∞) [2]: 2.790 h; Tmax [2]: 0.393 h; t1/2 [2]: 1.775 h; Cout/Cin ([1]; duodenum and jejunum): > 1; Cout/Cin ([1]; ileum): < 1; Cout/Cin ([1]; realgar intestinal perfusate, duodenum, time 15): 3.14 ± 0.81; Cout/Cin ([1]; realgar intestinal perfusate, duodenum, time 30): 3.16 ± 0.91; Cout/Cin ([1]; realgar intestinal perfusate, duodenum, time 45): 3.01 ± 0.96; Cout/Cin ([1]; realgar intestinal perfusate, duodenum, time 60): 3.20 ± 1.04; Cout/Cin ([1]; realgar intestinal perfusate, duodenum, time 75): 3.17 ± 0.86; Cout/Cin ([1]; realgar intestinal perfusate, ileum, time 15): 0.78 ± 0.11; Cout/Cin ([1]; realgar intestinal perfusate, ileum, time 30): 0.77 ± 0.10; Cout/Cin ([1]; realgar intestinal perfusate, ileum, time 45): 0.76 ± 0.12; Cout/Cin ([1]; realgar intestinal perfusate, ileum, time 60): 0.78 ± 0.11; Cout/Cin ([1]; realgar intestinal perfusate, ileum, time 75): 0.80 ± 0.13; Cout/Cin ([1]; realgar intestinal perfusate, jejunum, time 15): 1.54 ± 0.46; Cout/Cin ([1]; realgar intestinal perfusate, jejunum, time 30): 1.46 ± 0.39; Cout/Cin ([1]; realgar intestinal perfusate, jejunum, time 45): 1.50 ± 0.28; Cout/Cin ([1]; realgar intestinal perfusate, jejunum, time 60): 1.34 ± 0.25; Cout/Cin ([1]; realgar intestinal perfusate, jejunum, time 75): 1.28 ± 0.24
